Assay results as given in patent publication US20200131144A1, “AMINE OR (THIO)AMIDE CONTAINING LXR MODULATORS” (Phenex-FXR GmbH, priority 2017, published 2020).
Like-named read-outs stand apart in the source and are kept apart here.

Legend:
[1] = biological target: T1, GST-LXRβ ligand-binding domain (Homo sapiens, UniProt P55055, INS174Q); test: TR-FRETβ activity assay (NCoA3 coactivator peptide recruitment); assay type: biochemical; details: 1 μM 24(S)-25-epoxycholesterol as prestimulating agonist; inverse agonist unless *
T1 construct: amino acids 156-461; NP009052; made in house; host or cells: E. coli
T1 sequence (P55055 with tags, fused parts or gaps INS174Q limits assumed): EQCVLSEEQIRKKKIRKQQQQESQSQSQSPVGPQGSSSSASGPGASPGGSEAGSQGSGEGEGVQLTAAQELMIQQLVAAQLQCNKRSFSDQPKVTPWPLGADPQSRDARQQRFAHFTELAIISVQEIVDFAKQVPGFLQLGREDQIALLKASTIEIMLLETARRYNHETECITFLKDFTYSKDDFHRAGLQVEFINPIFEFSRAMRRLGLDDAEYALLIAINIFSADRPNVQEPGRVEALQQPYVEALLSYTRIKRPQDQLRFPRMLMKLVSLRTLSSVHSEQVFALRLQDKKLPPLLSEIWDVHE
Method in brief: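 E. coli-expressed GST-LXRβ LBD (aa 156-461, 76 nM) with biotinylated NCoA3 peptide (400 nM), anti-GST-Tb cryptate donor and streptavidin-XL665 acceptor in 240 mM KCl, BSA, 0.002% Triton X-100. Equilibrated 1 h at 4° C; TR-FRET read at 615/665 nm, triplicates.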

[2] = biological target: T2, LXRα ligand-binding domain (LBD) (Homo sapiens, UniProt Q13133); test: LXR Gal4 reporter transient transfection assay, mammalian two-hybrid, LBD-M2H Gal4α; assay type: cell-based; details: HEK293 cells; inverse agonist unless *
T2 construct: expressed in transfected cells; host or cells: HEK293
T2 sequence (Q13133 155-447): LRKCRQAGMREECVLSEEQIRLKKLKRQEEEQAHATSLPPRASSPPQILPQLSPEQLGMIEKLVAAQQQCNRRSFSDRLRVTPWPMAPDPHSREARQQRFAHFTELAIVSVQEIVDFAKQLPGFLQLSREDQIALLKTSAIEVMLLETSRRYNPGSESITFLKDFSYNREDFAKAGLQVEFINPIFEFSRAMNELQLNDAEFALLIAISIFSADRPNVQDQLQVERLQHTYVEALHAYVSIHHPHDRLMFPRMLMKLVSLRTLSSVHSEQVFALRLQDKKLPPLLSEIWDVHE
Procedure: (§1) The tested compounds were usually dissolved, tested and stored as 20 mM stock solutions in DMSO. Since sulfonyl acetic acid derivatives tend to decarboxylate under these conditions, these stock solutions were prepared, tested and stored as 20 mM DMSO stock solutions containing 100 mM trifluoroacetic acid (5 equivalents). Sulfonyl acetic acid derivatives are shelf stable as solid at rt for long time as reported by Griesbrecht et al. (Synlett 2010:374) or Faucher et al. (J. Med. Chem. 2004; 47:18).
(§2) LXR Gal4 Reporter Transient Transfection Assays
(§3) LXRα and LXRβ activity status was determined via detection of interaction with coactivator and corepressor proteins in mammalian two-hybrid experiments (M2H). For this, via transient transfection the full length (FL) proteins of LXRα (amino acids 1-447; NP005684; SEQ ID NO:1) or LXRβ-(amino acids 1-461; NP009052; SEQ ID NO:2) or the ligand-binding domains (LBD) of LXRα (amino acids 155-447 SEQ ID NO:3) or LXR (amino acids 156-461; SEQ ID NO:4) were expressed from pCMV-AD (Stratagene) as fusions to the transcriptional activation domain of NFkB. As cofactors, domains of either the steroid receptor coactivator 1 (SRC1; amino acids 552-887; SEQ ID NO:5) or of the corepressor NCoR (amino acids 1906-2312; NP006302; SEQ ID NO:6) were expressed as fusions to the DNA binding domain of the yeast transcription factor GAL4 (from pCMV-BD; Stratagene). Interaction was monitored via activation of a coexpressed Firefly Luciferase Reporter gene under control of a promoter containing repetitive GAL4 response elements (vector pFRLuc; Stratagene). Transfection efficiency was controlled via cotransfection of constitutively active pRL-CMV Renilla reniformis luciferase reporter (Promega). HEK293 cells were grown in minimum essential medium (MEM) with 2 mM L-glutamine and Earle's balanced salt solution supplemented with 8.3% fetal bovine serum, 0.1 mM non-essential amino acids, 1 mM sodium pyruvate, at 37° C. in 5% CO2. 3.5×10^4 cells/well were plated in 96-well cell culture plates in growth medium supplemented with 8.3% fetal bovine serum for 16-20 h to—90% confluency. For transfection, medium was taken off and LXR and cofactor expressing plasmids as well as the reporter plasmids are added in 30 μL OPTIMEM/well including polyethylene-imine (PEI) as vehicle. Typical amounts of plasmids transfected/well: pCMV-AD-LXR (5 ng), pCMV-BD-cofactor (5 ng), pFR-Luc (100 ng), pRL-CMV (0.5 ng). Compound stocks were prepared in DMSO, prediluted in MEM to a total volume of 120 μL, and added 4 h after addition of the transfection mixture (final vehicle concentration not exceeding 0.2%). Cells were incubated for additional 16 h, lysed for 10 min in 1×Passive Lysis Buffer (Promega) and Firefly and Renilla luciferase activities were measured sequentially in the same cell extract using buffers containing D-luciferine and coelenterazine, respectively. Measurements of luminescence were done in a BMG-luminometer.

[3] = biological target: T3, LXRβ ligand-binding domain (LBD) (Homo sapiens, UniProt P55055, INS174Q); test: LXR Gal4 reporter transient transfection assay, mammalian two-hybrid, LBD-M2H Gal4β; assay type: cell-based; details: HEK293 cells; inverse agonist unless *
T3 construct: or LXR (amino acids 156-461); expressed in transfected cells; host or cells: HEK293
T3 sequence (P55055 with tags, fused parts or gaps INS174Q limits assumed): T1 sequence (P55055 with tags, fused parts or gaps INS174Q limits assumed)
Procedure: as §1, §2, §3

LXRα full length (FL) = biological target: T4, LXRα full length (FL) (Homo sapiens, UniProt Q13133); test: LXR Gal4 reporter transient transfection assay, mammalian two-hybrid, FL-M2H Gal4α; assay type: cell-based; details: HEK293 cells; inverse agonist unless *
T4 construct: the full length (FL) proteins of LXRα (amino acids 1-447); NP005684; expressed in transfected cells; host or cells: HEK293
T4 sequence (Q13133 1-447): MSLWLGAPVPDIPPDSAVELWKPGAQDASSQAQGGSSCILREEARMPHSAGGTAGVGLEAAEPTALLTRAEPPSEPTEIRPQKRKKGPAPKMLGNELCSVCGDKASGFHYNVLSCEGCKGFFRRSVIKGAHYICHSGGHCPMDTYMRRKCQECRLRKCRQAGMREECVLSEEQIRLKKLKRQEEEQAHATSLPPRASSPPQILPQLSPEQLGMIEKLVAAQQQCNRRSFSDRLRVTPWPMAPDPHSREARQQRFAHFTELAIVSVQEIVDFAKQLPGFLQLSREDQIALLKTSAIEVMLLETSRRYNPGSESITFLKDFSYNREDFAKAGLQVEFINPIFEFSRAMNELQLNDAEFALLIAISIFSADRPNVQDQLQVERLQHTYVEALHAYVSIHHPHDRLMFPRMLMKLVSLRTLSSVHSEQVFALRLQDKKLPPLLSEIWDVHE
Method in brief: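 HEK293 cells transiently cotransfected with NFkB-AD fusions of full-length or LBD LXRα/β, GAL4-DBD fusions of SRC1 coactivator or NCoR corepressor domains, GAL4-driven firefly luciferase and Renilla control. Compound added 4 h post-transfection (≤0.2% DMSO), 16 h incubation; firefly and Renilla luminescence read sequentially.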

[4] = Short term HFD mouse model: liver and plasma exposure after multiple oral dosing; assay type: in vivo, mice (C57BL/6J); details: C57BL/6J, HFD mice, three oral doses of 10 mg/kg each, 4 h after final dose
Source text: Short Term HFD Mouse Model:
For this, C57BL/6J were purchased from Elevage Janvier (Rennes, France) at the age of 8 weeks. After an acclimation period of two weeks, animals were prefed on a high fat diet (HFD) (Ssniff Spezialdiäten GmbH, Germany, Surwit EF D12330 mod, Cat. No. E15771-34), with 60 kcal % from fat plus 1% (w/w) extra cholesterol (Sigma-Aldrich, St. Louis, Mo.) for 5 days. Animals were maintained on this diet during treatment with LXR modulators. The test compounds were formulated in 0.5% hydroxypropylmethylcellulose (HPMC) and administered in three doses (from 1.5 to 20 mg/kg each) by oral gavage according to the following schedule: on day one, animals received treatment in the morning and the evening (ca. 17:00), on day two animals received the final treatment in the morning after a 4 h fast and were sacrificed 4 h thereafter. Animal work was conducted according to the national guidelines for animal care in Germany.
Multiple oral dosing of compounds from the present invention in mice lead to a high liver exposure with a favourable liver to plasma ratio. […] These genes are related to hepatic de-novo lipogenesis. A suppression of these genes will reduce liver fat (liver triglycerides).

Row | EC50 [1] | EC50 [2] | EC50 [3] | FRETβ [1] | EC50 (LXRα full length (FL)) | concentration at 4 h ([4]; liver, read-out: liver exposure, 4 h) | Kp at 4 h ([4]; liver/plasma, read-out: liver/plasma ratio, 4 h) | concentration at 4 h ([4]; plasma, read-out: plasma exposure, 4 h) | SMILES
1 | 100 to 1000 nM | 100 to 1000 nM | < 100 nM | – | – | – | – | – | COc1cc(-c2cccc(C(C)(C)C(=O)O)c2)ccc1CN(Cc1ccc(C(F)(F)F)o1)Cc1c(C)cc(C)cc1C [22/12]
2 | 1000 to 10000 nM | 100 to 1000 nM | < 100 nM | – | – | – | – | – | Cc1ccc2cccnc2c1CN(Cc1ccc(-c2cccc(C(C)(C)C(=O)O)c2)cc1)Cc1ccc(C(F)(F)F)o1 [24/2]
3 | 100 to 1000 nM | < 100 nM | < 100 nM | – | – | – | – | – | Cc1ncc2ccccc2c1CN(Cc1ccc(-c2cccc(C(C)(C)C(=O)O)c2)cc1)Cc1ccc(C(F)(F)F)o1 [24/4]
4 | – | < 100 nM | < 100 nM | D* | – | – | – | – | Cc1nc2ccccc2c(CN(Cc2ccc(-c3cccc(C(C)(C)C(=O)O)c3)cc2)Cc2ccc(C(F)(F)F)o2)c1C [24/5]
5 | 100 to 1000 nM | < 100 nM | < 100 nM | – | – | – | – | – | Cc1cc(C)c2ccccc2c1CN(Cc1ccc(-c2cccc(C(C)(C)C(=O)O)c2)cc1)Cc1ccc(C(F)(F)F)o1 [24/6]
6 | – | 100 to 1000 nM | < 100 nM | B* | – | – | – | – | CC(C)(C(=O)O)c1cccc(-c2ccc(CN(Cc3ccc(C(F)(F)F)o3)Cc3cccc4nonc34)cc2)c1 [25/1]
7 | – | 100 to 1000 nM | < 100 nM | – | – | – | – | – | CC(C)(C(=O)O)c1cccc(-c2ccc(CN(Cc3ccc(C(F)(F)F)o3)Cc3cccc4c3OC(F)(F)O4)cc2)c1 [25/2]
8 | 1000 to 10000 nM | 100 to 1000 nM | < 100 nM | – | – | – | – | – | Cc1ccc2ccccc2c1CN(Cc1ccc(-c2cncc(C(C)(C)C(=O)O)c2)cc1)Cc1ccc(C(F)(F)F)o1 [26/1]
9 | 1000 to 10000 nM | – | < 100 nM | – | – | – | – | – | Cc1ccc2ccccc2c1CN(Cc1ccc(-c2nc(C(C)(C)C(=O)O)cs2)cc1)Cc1ccc(C(F)(F)F)o1 [26/3]
10 | 100 to 1000 nM | – | – | – | < 100 nM | 2020 nM | 1.4 | 1440 nM | Cc1ccc2ccccc2c1CN(Cc1ccc(-c2cccc([C@@H](C)C(=O)O)c2)cc1)Cc1ccc(C(F)(F)F)o1 [27/72]
11 | > 10000 nM | – | 100 to 1000 nM | – | – | – | – | – | Cc1nc2ccccc2nc1CN(Cc1ccc(-c2cccc(C(C)(C)C(=O)O)c2)cc1)Cc1ccc(C(F)(F)F)o1 [Example 25]
